From patent US11560400B2, “Salts of diphosphate phosphoramidate of nucleosides as anticancer compounds” (NuCana plc, priority 2017, dated 2023) come the findings set out here.

Where a name gives a salt, the structure may show the parent alone. Read-outs that look alike come from different tables or passages of the source.

The test system of one data set is HepG2. Nature of the data set: CellTiterGlo cell viability assay, HepG2. Format: cell-based. An outline of the steps: (§1)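 Compounds, serially diluted 3.16-fold in DMSO and pre-warmed in media to 37 °C, were added to cells in duplicate (final 198 μM–19.8 nM, 0.5% DMSO). Plates incubated 3 days in a CO2 incubator before CellTiterGlo readout.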
In a further data set the test system is OVCAR 3. Nature of the data set: CellTiterGlo cell viability assay, OVCAR 3. Format: cell-based. The note with it: Homo sapiens; for inhibition at 198 µM: percentage inhibition at the highest concentration tested, read-out: Top Inhibit; for EC50: absolute EC50, numeric values, read-out: Ab EC50. An outline of the steps:
as §1

A further data set relates to CCRF-CEM. Nature of the data set: CellTiterGlo cell viability assay, CCRF-CEM. Format: cell-based. The note with it: Homo sapiens, 72 h; for EC50: absolute EC50, numeric values, read-out: Ab EC50; for inhibition at 198 µM: percentage inhibition at the highest concentration tested, read-out: Top Inh. An outline of the steps: as §1
A general note: ATP-based viability assays read luminescence as a measure of living cells.

The subject of the next data set is RL. Nature of the data set: CellTiterGlo cell viability assay, RL. Format: cell-based. The note with it: Homo sapiens, 72 h; for EC50: absolute EC50, numeric values, read-out: Ab EC50; for inhibition at 198 µM: percentage inhibition at the highest concentration tested, read-out: Top Inh. The essentials:
as §1

The test system of a further data set is MOLT-4. Nature of the data set: CellTiterGlo cell viability assay, MOLT-4. Format: cell-based. The following applies: Homo sapiens, MOLT-4, 72 h; for inhibition at 198 µM: percentage inhibition at the highest concentration tested, read-out: Top Inh; for EC50: absolute EC50, numeric values, read-out: Ab EC50. The essentials: as §1
A further data set has as its system HL-60. Nature of the data set: CellTiterGlo cell viability assay, HL-60. Format: cell-based. The following applies: Homo sapiens, HL-60, 72 h; for EC50: absolute EC50, numeric values, read-out: Ab EC50; for inhibition at 198 µM: percentage inhibition at the highest concentration tested, read-out: Top Inh. An outline of the steps: as §1
The next data set deals with HT29. Nature of the data set: CellTiterGlo cell viability assay, HT29. Format: cell-based. The following applies: Homo sapiens, HT29, 72 h; for EC50: absolute EC50, numeric values, read-out: Ab EC50; for inhibition at 198 µM: percentage inhibition at the highest concentration tested, read-out: Top Inhibit. The essentials: as §1
A short description of the next data set: in vitro. The note with it: human, pH 7.3; for half-life: hepatocytes.
The subject of another data set is MCF-7. Nature of the data set: CellTiterGlo cell viability assay, MCF-7. Format: cell-based. The note with it: Homo sapiens, MCF-7, 72 h; for EC50: absolute EC50, numeric values, read-out: Ab EC50; for inhibition at 198 µM: percentage inhibition at the highest concentration tested, read-out: Top Inhibit. The essentials:
as §1

The test system of the next data set is K562. Nature of the data set: CellTiterGlo cell viability assay, K562. Format: cell-based. The following applies: Homo sapiens, K562, 72 h; for inhibition at 198 µM: percentage inhibition at the highest concentration tested, read-out: Top Inh; for EC50: absolute EC50, numeric values, read-out: Ab EC50. The essentials: as §1
Another data set relates to Mia-Pa-Ca-2. Nature of the data set: CellTiterGlo cell viability assay, Mia-Pa-Ca-2. Format: cell-based. The note with it: Homo sapiens, MIA PaCa-2, Mia-Pa-Ca-2, 72 h; for EC50: absolute EC50, read-out: Ab EC50; for inhibition at 198 µM: percentage inhibition at the highest concentration tested, read-out: Top Inhibit. The method, then:
A subset of compounds of the invention were assayed for their cytotoxic activity in an array of different solid tumours and haematological malignancies using the following assay.
In vitro viability assay were performed to assess the effects of compounds on cell viability in selected cell lines over 72 h using the CellTiterGlo (CTG, Promega-G7573) assay. The tests were performed in duplicates with treatment of compounds at 9 points, 3.16 folds titration in 96 well plates over ˜72 h. The compound starting concentrations were 198 μM. Cell viability assay using CellTiterGlo in 96-well plate were performed. Compound treatment 72 h, standard growth conditions, duplicates. Compounds were dissolved to 40 mM with thawed […]. Compounds were serially diluted at 3.16 fold in thawed DMSO, and warmed to 37° C. before being dissolved in media (2 μL+200 μL). After compounds were dissolved in media, media containing compounds were warmed to 37° C. in incubator and then compounds in media were added to cell plates (50 μL+50 μL) in duplicates. The compounds' final concentrations were from 198 μM to 19.8 nM. All compound solubilities were checked and recorded again, then the plates were transferred to CO2 tissue culture incubator immediately and incubated for 3 days. DMSO final concentration is 0.5%. The parent nucleoside in each case was tested as a comparator, as was an exemplary ProTide. The drugs of the ProTide class that were tested were as follows:
The following cell lines were tested and are referred to in the Table 1 below:
In Tables 2, 3 and 4, ‘Ab EC50’ refers to the absolute EC50 and ‘Top inhibit’ refers to the percentage inhibition achieved at the highest concentration tested.

A further data set deals with RPMI-8226. Nature of the data set: CellTiterGlo cell viability assay, RPMI-8226. Format: cell-based, Human. The essentials:
as §1

Setting [1] is: Homo sapiens, HepG2, 72 h, absolute EC50, numeric values, read-out: Ab EC50.
Setting [2] is: Homo sapiens, HepG2, 72 h, percentage inhibition at the highest concentration tested, read-out: Top Inhibit.
Setting [3] is: Homo sapiens, RPMI-8226, 72 h, absolute EC50, numeric values, read-out: Ab EC50.
The mark [4] stands for this setting: Homo sapiens, RPMI-8226, 72 h, percentage inhibition at the highest concentration tested, read-out: Top Inh.

Consider `C[C@H](NP(=O)(Oc1ccccc1)OP(=O)(O)OC[C@H]1O[C@@H](n2ccc(N)nc2=O)C(F)(F)C1O)C(=O)OCc1ccccc1` (stereo partly drawn) [Example 8, 2′-Deoxy-2′,2′-difluoro-D-cytidine-5′-O-[phenyl(benzoxy-L-alaninyl)] Diphosphate Triethylammonium Salt], for which the EC50 is 83100 nM in the data set with HepG2 (setting [1]); greater than 198000 nM with OVCAR 3 (OVCAR 3, 72 h); 40 nM in the data set with CCRF-CEM; 200 nM with RL; 9 nM with MOLT-4; 80 nM in the data set with HL-60. Besides, the EC50 was 480 nM in the data set with HT29 (HT-29, 72 h); 70 nM in the data set with MCF-7 (MCF7, 72 h); greater than 198000 nM in the data set with K562; 70 nM in the data set with Mia-Pa-Ca-2. Also, the inhibition at 198 µM came out at 52% in the data set on HepG2 (setting [2]); 48.5% in the data set with OVCAR 3 (OVCAR-3, 72 h); 99.9% with CCRF-CEM; 66.5% in the data set on RL; 84% in the data set with MOLT-4; 98% in the data set on HL-60. The inhibition at 198 µM in the data set on HT29 (HT-29, 72 h) is 62%; in the data set with MCF-7 (MCF7, 72 h) it was 52%; in the data set on K562, 29%; with Mia-Pa-Ca-2, 79%. The half-life in the data set “in vitro” is 27 min.
On to `O=c1[nH]c(=O)n([C@H]2C[C@H](O)[C@@H](CO)O2)cc1F` [FUDR, 5-fluoro-2′-deoxyuridine, reference compound], for which the EC50 with HepG2 (Homo sapiens; HepG2, 72 h, absolute EC50, numeric values; read-out: Ab EC50) was found to be 84000 nM; in the data set with OVCAR 3 (OVCAR 3, 72 h), 2320 nM; in the data set with RPMI-8226 (Homo sapiens; RPMI-8226, 72 h, absolute EC50, numeric values; read-out: Ab EC50), 110 nM; in the data set with CCRF-CEM it was 40 nM; in the data set on HT29 (HT-29), 220 nM; in the data set on MCF-7 (MCF7), 7230 nM. Also, the EC50 in the data set on Mia-Pa-Ca-2 was found to be 350 nM. Further, the inhibition at 198 µM came to 61% with HepG2 (Homo sapiens; HepG2, 72 h, percentage inhibition at the highest concentration tested; read-out: Top Inhibit); 66% in the data set on OVCAR 3 (OVCAR 3, 72 h); 99% in the data set with RPMI-8226 (Homo sapiens; RPMI-8226, 72 h, percentage inhibition at the highest concentration tested; read-out: Top Inh); 91.9% with CCRF-CEM; 82% in the data set on HT29 (HT-29); 73% with MCF-7 (MCF7). For the same compound, in the data set on Mia-Pa-Ca-2, the inhibition at 198 µM turned out to be 90%. This compound registered a half-life at 1 μM in “in vitro” (pooled cryopreserved hepatocytes) of 69 min.
Consider `C[C@H](NP(=O)(Oc1cccc2ccccc12)OP(=O)(O)OC[C@H]1O[C@@H](n2c(Cl)nc3c(N)ncnc32)[C@@H](O)C1O)C(=O)OCc1ccccc1` (stereo partly drawn) [Example 5, 8-Chloroadenosine-5′-O-[1-naphthyl-(benzoxy-L-alaninyl)]diphosphate Triethylammonium Salt], for which the EC50 in the data set with HT29 (HT-29, 72 h) is 1410 nM; in the data set with MCF-7 (MCF7, 72 h) it was 1690 nM; in the data set on Mia-Pa-Ca-2, 430 nM. Moreover, the inhibition at 198 µM in the data set with HT29 (HT-29, 72 h) came out at 76.5%; with MCF-7 (MCF7, 72 h), 88%; in the data set with Mia-Pa-Ca-2 it was 87.6%. The same compound came in with a half-life in “in vitro” of 18 min.
On to `C[C@H](NP(=O)(Oc1cccc2ccccc12)OP(=O)(O)OC[C@H]1O[C@@H](n2cc(F)c(=O)[nH]c2=O)CC1O)C(=O)OCc1ccccc1` (stereo partly drawn) [Example 4, 5-Fluoro-2′-deoxyuridine-5′-O-[1-naphthyl-(benzoxy-L-alaninyl)] Diphosphate Triethylammonium Salt], for which the EC50 was greater than 198000 nM in the data set on HepG2 (setting [1]); 2810 nM in the data set with OVCAR 3 (OVCAR 3, 72 h); 50 nM in the data set with RPMI-8226 (setting [3]); 30 nM in the data set on CCRF-CEM; 250 nM in the data set with HT29 (HT-29, 72 h); 15800 nM in the data set with MCF-7 (MCF7, 72 h). Further, in the data set on Mia-Pa-Ca-2, the concentration giving a half-maximal response (EC50) was 110 nM. Besides, the inhibition at 198 µM in the data set on HepG2 (setting [2]) was found to be 48%; with OVCAR 3 (OVCAR-3, 72 h) it was 67.5%; with RPMI-8226 (setting [4]) it was 95%; in the data set on CCRF-CEM, 97.1%; with HT29 (HT-29, 72 h), 77%; in the data set on MCF-7 (MCF7, 72 h), 66%. Moreover, in the data set on Mia-Pa-Ca-2, the inhibition at 198 µM worked out at 67%. Besides, the half-life in the data set “in vitro” came to 15 min.
As to `C[C@H](NP(=O)(Oc1ccccc1)OP(=O)(O)OC[C@@H]1C[C@H](OP(=O)(O)OP(=O)(N[C@@H](C)C(=O)OCc2ccccc2)Oc2ccccc2)[C@H](n2cnc3c(N)ncnc32)O1)C(=O)OCc1ccccc1` (stereo partly drawn) [Example 7, 3′-Deoxyadenosine-5′,2′-Bis-O-[phenyl(benzoxy-L-alaninyl)]-diphosphate Triethylammonium Salt], the EC50 came out at 1600 nM in the data set with RPMI-8226 (setting [3]); 11100 nM in the data set on RL; 25300 nM in the data set with MOLT-4; 6970 nM in the data set on HL-60; 7790 nM in the data set on HT29 (HT-29, 72 h); 9160 nM in the data set on K562. Besides, the EC50 with Mia-Pa-Ca-2 came to 3320 nM. Moreover, the inhibition at 198 µM with RPMI-8226 (setting [4]) worked out at 98%; in the data set on RL it was 93%; with MOLT-4, 90%; in the data set on HL-60, 100%; in the data set on HT29 (HT-29, 72 h), 79%; with K562, 94%. The inhibition at 198 µM with Mia-Pa-Ca-2 was 98.9%. In addition, the half-life in “in vitro” was determined as 27 min.

A word on the EC50: it is the midpoint of the concentration-response curve. A word on the half-life: it is the time in which the quantity being followed falls by half. A higher half-life goes with slow loss.
